Assay results: publication PMC8151276, “An Integrated Approach toward NanoBRET Tracers for Analysis of GPCR Ligand Engagement” (Molecules, 2021)

How the values were obtained:
Type in all cases: binding
CCR1 = target: T1, CCR1 (Homo sapiens, UniProt P32246); test: NanoBRET screen HiBiT-CCR1 in HEK293; details: CCR1
T1 construct: purchased Promega (in-house HiBiT-GPCR construct library, NanoBRET)
T1 sequence (P32246 1-355): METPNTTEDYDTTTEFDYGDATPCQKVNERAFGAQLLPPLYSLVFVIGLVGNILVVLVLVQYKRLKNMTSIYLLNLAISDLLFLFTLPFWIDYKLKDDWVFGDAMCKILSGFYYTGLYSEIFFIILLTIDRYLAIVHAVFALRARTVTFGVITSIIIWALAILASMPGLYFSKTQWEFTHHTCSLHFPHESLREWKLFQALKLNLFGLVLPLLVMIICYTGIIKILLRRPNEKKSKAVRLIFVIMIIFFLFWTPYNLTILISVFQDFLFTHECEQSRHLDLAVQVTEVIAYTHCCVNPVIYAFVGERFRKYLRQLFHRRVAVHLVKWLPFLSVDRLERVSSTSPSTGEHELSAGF
Procedure: (§1) Each tracer candidate was screened across the entire library of HiBiT-GPCR constructs using NanoBRET as the detection modality. As depicted in Figure 4A, the specificity of interactions was evaluated through decrease in BRET due to competitive displacement of a bound tracer by excess parental compound. Each tracer was analyzed for binding to each HiBiT-GPCR fusion in the absence and in the presence of competing parental compound. Briefly, HEK293 cells were transfected with HiBiT-GPCR constructs diluted into promoterless DNA to reduce expression and maximize translocation to the cell surface. Each tracer candidate was then screened at concentrations of 1 μM and 0.1 μM across cells expressing these fusions. Cells were treated for 1.5 h with tracer either alone or in the presence of 20 μM competing parental compound (i.e., control). BRET was measured upon addition of purified LgBiT and subsequent complementation with HiBiT genetically fused to a GPCR. The specificity of interactions was assessed through a decrease in BRET signal due to competitive displacement of the bound tracer. To further gauge the robustness of these interactions, the fold response over the control (i.e., BRETtracer/BRETcontrol) was calculated. We chose a 1.5-fold response, which translates to ≥7-fold signal over noise as the minimal threshold required to score an interaction as positive. […]. Below we highlight the screening results obtained for our exemplary fluorescent tracers based on Clozapine, Amitriptyline and AZD1283.
(§2) HiBiT-GPCR DNA constructs were diluted in 10 mM Tris pH 8 to a final concentration of 0.01 μg/μL, arrayed in 96-well plates and stored at −20 °C. For transfection, HEK293 cells were suspended in Opti-MEM (without phenol red) supplemented with 2% fetal bovine serum (Seradigm) and 100 units/mL penicillin–streptomycin (Gibco) at a final concentration of 220,000 cells/mL and dispensed into white 96-well plates at 90 μL/well. Subsequent transfections and screens were carried using an Agilent Bravo Automated Liquid Handling Platform. First, the 96-well HiBiT DNA arrays were diluted 25-fold in Opti-MEM (without serum or phenol red) to a final concentration of 0.0004 μg/μL and 20 μL of the diluted DNAs were transferred into new 96-well plates. Next, promoterless carrier DNA (1 μg/μL) was diluted 25-fold (0.04 μg/μL) and then dispensed into the diluted arrays at 20 μL/well. Following brief mixing, Viafect transfection reagent (Promega) diluted 16-fold into Opti-MEM was dispensed into the plates at 40 μL/well. After mixing by pipetting, plates were incubated for 10 min on the pipetting station deck. The DNA-transfection reagent complexes were then added to plates containing cells. To facilitate the screen, 10 μL of DNA-transfection reagent complexes were added in duplicates to the top 4 and bottom 4 rows, resulting in two identical 48-well arrays per plate. Plates with transfected cells were incubated for 18–20 h at 37 °C/5% CO2. A screen of each tracer across the entire library using two different concentrations requires duplicate plates of transfected cells. Depending on the number of tracers being screened, transfections can be scaled up using the same ratios. The next day, for each tracer, four 20× screening solutions in tracer dilution buffer (Promega) were prepared: two duplicates at final concentration of 20 μM and two duplicates at a final concentration of 2 μM. A competing unmodified compound was added to one of each duplicate at a final concentration of 400 μM. The four resulting solutions were diluted 4-fold in Opti-MEM without serum or phenol red to generate 5× solutions (5 µM and 0.5 µM tracer +/− 100 μM competing compound). To screen the library, a BioTek MultiFlo FX liquid dispenser was used to dispense 22.5 µL of tracer solution to the top 4 rows and 22.5 µL tracer + competing compound solution to the 4 bottom rows. Plates were briefly mixed on an orbital shaker and incubated for 1.5 h at room temperature. […]

FZD8 = target: T2, FZD8 (Homo sapiens, UniProt Q9H461); test: NanoBRET screen HiBiT-FZD8 in HEK293; details: FZD8
T2 construct: purchased Promega (in-house HiBiT-GPCR construct library, NanoBRET)
T2 sequence (Q9H461 28-694): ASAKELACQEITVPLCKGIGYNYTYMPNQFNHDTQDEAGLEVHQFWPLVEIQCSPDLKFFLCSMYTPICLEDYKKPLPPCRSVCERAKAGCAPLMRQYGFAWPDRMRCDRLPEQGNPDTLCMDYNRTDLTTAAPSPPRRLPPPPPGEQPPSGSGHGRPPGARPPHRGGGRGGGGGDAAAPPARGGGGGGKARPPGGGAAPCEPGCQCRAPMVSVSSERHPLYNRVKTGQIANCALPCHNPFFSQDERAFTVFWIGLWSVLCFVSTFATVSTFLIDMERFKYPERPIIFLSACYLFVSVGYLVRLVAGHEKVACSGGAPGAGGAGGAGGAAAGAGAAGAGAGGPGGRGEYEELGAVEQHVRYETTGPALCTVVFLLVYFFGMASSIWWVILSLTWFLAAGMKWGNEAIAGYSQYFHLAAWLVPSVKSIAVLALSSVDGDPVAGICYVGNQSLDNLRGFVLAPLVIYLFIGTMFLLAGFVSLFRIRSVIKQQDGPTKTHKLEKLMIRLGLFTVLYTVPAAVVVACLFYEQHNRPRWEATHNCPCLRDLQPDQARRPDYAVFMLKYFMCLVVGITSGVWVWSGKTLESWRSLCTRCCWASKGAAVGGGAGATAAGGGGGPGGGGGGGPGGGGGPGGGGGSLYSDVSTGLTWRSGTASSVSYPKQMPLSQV
Procedure: as §1, §2

HRH4 = target: T3, HRH4 (Homo sapiens, UniProt Q9H3N8); test: NanoBRET screen HiBiT-HRH4 in HEK293; details: HRH4
T3 construct: purchased Promega (in-house HiBiT-GPCR construct library, NanoBRET)
T3 sequence (Q9H3N8 whole entry): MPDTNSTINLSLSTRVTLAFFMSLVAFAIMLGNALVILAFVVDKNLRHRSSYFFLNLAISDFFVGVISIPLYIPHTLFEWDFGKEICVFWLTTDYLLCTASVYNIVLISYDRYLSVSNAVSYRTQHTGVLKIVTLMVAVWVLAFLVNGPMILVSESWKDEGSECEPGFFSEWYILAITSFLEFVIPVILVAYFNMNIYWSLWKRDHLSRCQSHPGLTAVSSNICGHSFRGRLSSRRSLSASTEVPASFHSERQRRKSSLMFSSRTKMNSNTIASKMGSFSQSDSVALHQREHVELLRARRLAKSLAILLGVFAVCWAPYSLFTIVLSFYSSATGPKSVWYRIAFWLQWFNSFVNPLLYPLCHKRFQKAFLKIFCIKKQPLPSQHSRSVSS
Procedure: as §1, §2

P2RY1 = target: T4, P2RY1 (Homo sapiens, UniProt P47900); test: NanoBRET screen HiBiT-P2RY1 in HEK293; details: P2RY1
T4 construct: purchased Promega (in-house HiBiT-GPCR construct library, NanoBRET)
T4 sequence (P47900 whole entry): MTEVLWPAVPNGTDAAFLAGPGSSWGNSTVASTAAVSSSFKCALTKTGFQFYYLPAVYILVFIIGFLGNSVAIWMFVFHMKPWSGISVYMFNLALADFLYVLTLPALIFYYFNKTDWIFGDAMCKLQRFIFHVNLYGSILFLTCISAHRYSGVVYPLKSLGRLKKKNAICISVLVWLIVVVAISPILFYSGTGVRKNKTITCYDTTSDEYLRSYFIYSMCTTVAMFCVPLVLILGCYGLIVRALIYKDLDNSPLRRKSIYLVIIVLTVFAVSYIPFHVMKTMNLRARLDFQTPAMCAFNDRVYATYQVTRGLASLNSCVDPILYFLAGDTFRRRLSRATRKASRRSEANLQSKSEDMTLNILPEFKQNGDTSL
Procedure: as §1, §2

MCHR1 = target: T5, MCHR1 (Homo sapiens, UniProt Q99705); test: NanoBRET screen HiBiT-MCHR1 in HEK293; details: MCHR1
T5 construct: purchased Promega (in-house HiBiT-GPCR construct library, NanoBRET)
T5 sequence (Q99705 whole entry): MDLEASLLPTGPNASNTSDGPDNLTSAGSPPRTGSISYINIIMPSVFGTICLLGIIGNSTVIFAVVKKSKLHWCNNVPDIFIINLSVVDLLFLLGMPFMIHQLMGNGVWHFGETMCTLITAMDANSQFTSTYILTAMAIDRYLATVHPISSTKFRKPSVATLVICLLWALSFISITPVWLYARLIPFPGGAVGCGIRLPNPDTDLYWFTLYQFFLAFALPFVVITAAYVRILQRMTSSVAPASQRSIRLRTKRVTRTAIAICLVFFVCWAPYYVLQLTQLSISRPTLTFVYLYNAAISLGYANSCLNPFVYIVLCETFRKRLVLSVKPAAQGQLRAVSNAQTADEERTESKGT
Procedure: as §1, §2

NPY1R = target: T6, NPY1R (Homo sapiens, UniProt P25929); test: NanoBRET screen HiBiT-NPY1R in HEK293; details: NPY1R
T6 construct: purchased Promega (in-house HiBiT-GPCR construct library, NanoBRET)
T6 sequence (P25929 1-384): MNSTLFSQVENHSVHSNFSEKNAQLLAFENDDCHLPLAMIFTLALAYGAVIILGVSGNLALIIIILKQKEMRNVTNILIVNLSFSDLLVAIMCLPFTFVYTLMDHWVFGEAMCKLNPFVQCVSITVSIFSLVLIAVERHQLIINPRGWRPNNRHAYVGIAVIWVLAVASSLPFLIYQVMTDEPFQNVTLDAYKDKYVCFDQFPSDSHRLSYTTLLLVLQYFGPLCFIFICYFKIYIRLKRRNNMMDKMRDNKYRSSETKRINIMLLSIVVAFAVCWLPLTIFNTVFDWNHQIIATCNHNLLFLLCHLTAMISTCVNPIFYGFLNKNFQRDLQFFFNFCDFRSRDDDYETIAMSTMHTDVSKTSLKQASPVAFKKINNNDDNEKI
Procedure: as §1, §2

GRM5 = target: T7, GRM5 (Homo sapiens, UniProt P41594); test: NanoBRET screen HiBiT-GRM5 in HEK293; details: GRM5
T7 construct: purchased Promega (in-house HiBiT-GPCR construct library, NanoBRET)
T7 sequence (P41594 21-1212): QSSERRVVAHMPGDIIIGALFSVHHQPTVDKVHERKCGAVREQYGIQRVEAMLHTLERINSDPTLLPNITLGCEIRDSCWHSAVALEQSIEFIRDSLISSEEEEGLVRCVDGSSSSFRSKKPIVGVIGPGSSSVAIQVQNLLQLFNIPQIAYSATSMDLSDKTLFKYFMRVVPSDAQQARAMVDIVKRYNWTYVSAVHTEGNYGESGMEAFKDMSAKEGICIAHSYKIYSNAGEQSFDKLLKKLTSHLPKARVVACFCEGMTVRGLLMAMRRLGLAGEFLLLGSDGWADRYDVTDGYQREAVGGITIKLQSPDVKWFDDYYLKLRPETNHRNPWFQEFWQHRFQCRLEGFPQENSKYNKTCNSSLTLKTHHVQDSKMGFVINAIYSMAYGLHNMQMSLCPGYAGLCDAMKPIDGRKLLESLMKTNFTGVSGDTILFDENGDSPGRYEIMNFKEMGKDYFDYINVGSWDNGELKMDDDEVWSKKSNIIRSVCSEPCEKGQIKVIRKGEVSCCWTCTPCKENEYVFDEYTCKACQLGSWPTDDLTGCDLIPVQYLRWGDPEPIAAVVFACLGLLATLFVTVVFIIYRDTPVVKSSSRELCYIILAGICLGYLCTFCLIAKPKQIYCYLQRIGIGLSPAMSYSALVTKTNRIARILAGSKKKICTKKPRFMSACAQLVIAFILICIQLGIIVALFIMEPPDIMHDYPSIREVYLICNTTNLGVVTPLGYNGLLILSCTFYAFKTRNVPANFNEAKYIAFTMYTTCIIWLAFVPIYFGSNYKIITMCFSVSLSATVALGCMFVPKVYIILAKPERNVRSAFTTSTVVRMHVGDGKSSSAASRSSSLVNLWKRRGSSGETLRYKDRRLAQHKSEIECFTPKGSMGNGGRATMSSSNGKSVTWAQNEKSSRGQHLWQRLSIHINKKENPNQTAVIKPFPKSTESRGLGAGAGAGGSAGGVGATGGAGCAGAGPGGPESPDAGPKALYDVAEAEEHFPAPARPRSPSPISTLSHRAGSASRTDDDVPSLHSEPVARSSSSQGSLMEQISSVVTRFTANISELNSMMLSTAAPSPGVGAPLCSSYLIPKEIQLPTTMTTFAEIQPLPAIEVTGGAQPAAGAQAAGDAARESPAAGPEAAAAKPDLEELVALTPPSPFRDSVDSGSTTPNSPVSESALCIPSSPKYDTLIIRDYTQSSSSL
Procedure: as §1, §2

Compound	NanoBRET Fold Response (CCR1; 0.1μM tracer)	NanoBRET Fold Response (CCR1; 1μM tracer)	NanoBRET Fold Response (FZD8; 0.1μM tracer)	NanoBRET Fold Response (FZD8; 1μM tracer)	NanoBRET Fold Response (HRH4; 0.1μM tracer)	NanoBRET Fold Response (HRH4; 1μM tracer)	NanoBRET Fold Response (P2RY1; 0.1μM tracer)	NanoBRET Fold Response (P2RY1; 1μM tracer)	NanoBRET Fold Response (MCHR1; 0.1μM tracer)	NanoBRET Fold Response (MCHR1; 1μM tracer)	NanoBRET Fold Response (NPY1R; 0.1μM tracer)	NanoBRET Fold Response (NPY1R; 1μM tracer)	NanoBRET Fold Response (GRM5; 0.1μM tracer)	NanoBRET Fold Response (GRM5; 1μM tracer)	also measured
CN1CCN(C2=Nc3cc(Cl)ccc3Nc3ccc(CNC(=O)CCOCCOCCOCCOCCNC(=O)CCc4ccc5n4[B-](F)(F)[N+]4=C(c6ccc[nH]6)C=CC4=C5)cc32)CC1 [Clozapine-b-2-NB590]	1.04	0.98	1.00	1.02	1.01	0.81	1.03	1.01	0.96	1.00	1.00	1.03	0.99	1.01	
CN1CCN(C2=Nc3cc(Cl)ccc3N(CC(=O)NCCOCCOCCOCCOCCNC(=O)CCc3ccc4n3[B-](F)(F)[N+]3=C(c5ccc[nH]5)C=CC3=C4)c3ccccc32)CC1 [Clozapine-c-2-NB590]	1.05	0.98	0.97	1.04	1.04	0.97	0.97	1.03	1.00	0.93	1.01	1.01	0.99	1.12	
O=C(CCOCCOCCOCCOCCNC(=O)CCc1ccc2n1[B-](F)(F)[N+]1=C(c3ccc[nH]3)C=CC1=C2)NCCCN1CCN(C2=Nc3ccccc3Oc3ccc(Cl)cc32)CC1 [Loxapine-a-2-NB590]															NanoBRET Fold Response (CCR1; tracer 0.1μM): 1.00; NanoBRET Fold Response (CCR1; tracer 1μM): 0.99; NanoBRET Fold Response (FZD8; tracer 0.1μM): 0.95; NanoBRET Fold Response (FZD8; tracer 1μM): 1.01; NanoBRET Fold Response (HRH4; tracer 0.1μM): 0.96; NanoBRET Fold Response (HRH4; tracer 1μM): 1.02; NanoBRET Fold Response (P2RY1; tracer 0.1μM): 1.01; NanoBRET Fold Response (P2RY1; tracer 1μM): 0.97; NanoBRET Fold Response (MCHR1; tracer 0.1μM): 1.03; NanoBRET Fold Response (MCHR1; tracer 1μM): 1.20; NanoBRET Fold Response (NPY1R; tracer 0.1μM): 0.94; NanoBRET Fold Response (NPY1R; tracer 1μM): 1.09; NanoBRET Fold Response (GRM5; tracer 0.1μM): 1.00; NanoBRET Fold Response (GRM5; tracer 1μM): 1.04
